# ChEMBL document CHEMBL3997834, “Phenolic compounds isolated from Dioscorea zingiberensis protect against pancreatic acinar cells necrosis induced by sodium taurocholate” (Bioorg Med Chem Lett, 2017)
# Activity calls are given as the source filed them. No cut-off for these calls is given here.
# Key:
# [1] = system: Pancreatic acinar cell; assay: (§1) Cytoprotective activity against sodium taurocholate-induced necrosis in Balb/C mouse pancreatic acinar cells at 0.5 mM after 40 mins by propidium iodide/Hoechst 33342 staining-based fluorescence microscopic method; assay type: functional
# [2] = Cytotoxicity against Balb/C mouse pancreatic acinar cells at 1 mM after 40 mins by propidium iodide/Hoechst 33342 staining-based fluorescence microscopic method; details: pancreatic acinar cell, 1000 µM
# [3] = Cytoprotective activity against sodium taurocholate-induced necrosis in Balb/C mouse pancreatic acinar cells assessed as intracellular ATP production at 0.5 mM measured at 20 mins by luminescence assay (reference value: 39.9%); assay type: functional, Pancreatic acinar cell
# [4] = Cytoprotective activity against sodium taurocholate-induced necrosis in Balb/C mouse pancreatic acinar cells assessed as intracellular ATP production at 0.5 mM measured at 40 mins by luminescence assay (reference value: 21.5%); assay type: functional, Pancreatic acinar cell
# [5] = Cytoprotective activity against sodium taurocholate-induced necrosis in Balb/C mouse pancreatic acinar cells assessed as decrease in intracellular reactive oxygen species generation at 0.5 mM measured for 20 mins by H2-DCFDA probe-based fluorescence assay relative to control; assay type: functional, Pancreatic acinar cell; design: scale not given: the % may be the effect or the level left
# [6] = system: Pancreatic acinar cell; assay: Cytoprotective activity against sodium taurocholate-induced necrosis in Balb/C mouse pancreatic acinar cells at 1 mM after 40 mins by propidium iodide/Hoechst 33342 staining-based fluorescence microscopic method; assay type: functional
# [7] = as §1; assay type: functional, Pancreatic acinar cell
# [8] = system: Pancreatic acinar cell; assay: Cytoprotective activity against sodium taurocholate-induced necrosis in Balb/C mouse pancreatic acinar cells at 5 mM after 40 mins by propidium iodide/Hoechst 33342 staining-based fluorescence microscopic method; assay type: functional
Compound,Activity [1],other results
COc1c(O)cc(CCc2ccccc2)cc1O,inactive,–
COc1cc(CC[C@@H](O)C[C@H](O)CCc2ccc(O)cc2)ccc1O,Active,–
COc1ccc2c(c1O)-c1c(cc(O)cc1OC)CC2,inactive,–
COc1ccc(CCc2cc(O)c(OC)c(O)c2)cc1,inactive,–
Oc1ccc(CC[C@@H](O)C[C@H](O)CCc2ccc(O)c(O)c2)cc1,–,Activity [2]: Toxic; Activity [3]: 59.4%; Activity [4]: 38.3%; Activity [5]: 27.9%; Activity [6]: inactive; Activity [7]: 19%
Oc1ccc(CC[C@@H](O)C[C@H](O)CCc2ccc(O)cc2)cc1,Active,–
COc1cc(CC[C@@H](O)C[C@H](O)CCc2ccc(O)c(OC)c2)ccc1O,Active,–
Cn1c(=O)c2c(ncn2C)n(C)c1=O,–,Activity [8]: Active
COc1cc(O)cc(CCc2ccc(OC)c(O)c2)c1,inactive,–
